Columns and labels:
[1] = system: Renal tumor line CRL-1161; assay: In vitro growth of human renal tumor cells, 3H-thymidine uptake; assay type: cell-based; details: 48 hours with drug
Description: (§1) In vitro test procedure: Renal tumor lines HTB-44 and CRL-1161 were obtained from the American Tissue Culture Collection (ATCC), Bethesda, Md. SN12-C line was obtained from Dr. J. Fidler, M. D. Anderson Hospital, Houston, Tex. Cells were plated in MEM (Gibco) supplemented with 2 mM glutamine, 1 mM sodium pyruvate, 5 ml penicillin-streptomycin solution, 1 mM non-essential amino acid solution, 10% fetal bovine solution. Cells (5×10^3) were plated in 96 well plates with a final volume of […] and incubated for 24 hours at 37° C. Log dilutions of CCI-779 beginning at 100 μg/ml were then added to the cultures for 48 hours. Over the last 5 hours, cells were pulsed with 1 μci ^3H-thymidine (New England Nuclear, 6.7 ci/m Mol). Cells were then harvested and the degree of thymidine uptake determined by liquid scintillation spectrometry. The IC50 was determined as the concentration that produced 50% of the maximum uptake of thymidine in control untreated cells.
(§2) Human renal cell tumors were cultured in vitro in the presence or absence of CCI-779 for 3 days and the effect on growth determined by ^3H-thymidine incorporation of control versus treated cells.

[2] = system: Renal tumor line SN12-C; assay: as above; assay type: cell-based; details: 48 hours with drug
Description: as §1, §2

[3] = system: Renal tumor line HTB-44; assay: as above; assay type: cell-based; details: 48 hours with drug
Description: as §1, §2

[4] = system: advanced cancer (solid tumors and lymphomas) refractory to standard therapy; assay: Phase I clinical trial, 30 minute i.v. infusion daily for 5 days every two to three weeks; assay type: in vivo, human
Description: (§3) Two single agent (CCI-779) Phase I clinical trials have been conducted. In the first study, CCI-779 was administered as a 30 minute i.v. infusion daily for 5 days, every two to three weeks. In the second study, CCI-779 was administered as a 30 minute i.v. infusion, once weekly. Both trials were open label, ascending dose, single-arm, multicenter studies. Patients were allowed to continue treatment as long as the CCI-779 was tolerated and there was no evidence of obvious disease progression. The following eligibility criteria were used:
(§4) Inclusion Criteria • 1. Patients with a histologic diagnosis of advanced cancer (solid tumors and, in the first study, lymphomas) who are refractory to standard therapy or for whom standard therapy is not appropriate. • 2. Measurable or evaluable disease. • 3. At least 3 weeks since prior chemotherapy and/or radiation therapy (6 weeks since nitrosoureas or mitomycin C). • 4. At least 4 weeks since any other investigational agent. • 5. Age at least 18 years old. • 6. Adequate bone marrow, renal, and hepatic function. • 7. Serum cholesterol<350 mg/dL and triglycerides […]. • 8. ECOG performance status 0-2. • 9. Life expectancy of at least 3 months. • 10. Signed, dated, witnessed written informed consent.
(§5) A total of 63 patients and 24 patients were enrolled in first and second studies, respectively. Dose levels ranged from 0.75-24 mg/m^2 and 7.5-220 mg/m^2, with the daily×5 every 2 weeks and weekly schedules, respectively.

[5] = system: advanced cancer (solid tumors) refractory to standard therapy; assay: Phase I clinical trial, 30 minute i.v. infusion once weekly; assay type: in vivo, human; details: for number of partial responses: weekly dosage schedule
Description: as §3, §4, §5

[6] = system: CRL-1161 human renal tumor cells; assay: Human renal tumor cell xenograft in nude mice; assay type: in vivo, Balb/c nu/nu mice; details: CRL-1161 xenograft; for Tumor Mass / % T/C (Treated/Control × 100): 25 mg/kg oral
Description: (§6) In vivo test procedure: Female Balb/c nu/nu mice were obtained from Charles River Labs, Wilmington, Del., at 6-8 weeks of age. Mice (n=10/group) were injected sc with 5×10^6 cells resuspended in a 50% solution of Matrigel (BD Biosciences) and tumors allowed to develop. When tumor size reached 100 mg, mice were treated orally with CCI-779 at 25 mg/kg. CCI-779 was dosed for 5 consecutive days with repeated 14 day cycles throughout the duration of the experiment. The formulation used for CCI-779 was a 50% ethanol, 49% phosal, 1% tween 80 vehicle for resuspending CCI-779, where the stock was resuspended into a 1:10 dilution of the vehicle prior to dosing. Tumor growth was evaluated using a vernier caliper and volume (l×w×h) was converted to mass using the formula: 1×w^2/2.
(§7) The effect of CCI-779 in two human renal lines (HTB-44 and CRL-1161) was evaluated in vivo by engrafting tumor cells on the flanks of nude mice. Once tumors were established at a size of about 100 mg, mice were treated with CCI-779 or a vehicle control.

[7] = system: HTB-44 human renal tumor cells; assay: Human renal tumor cell xenograft in nude mice; assay type: in vivo, Balb/c nu/nu mice; details: HTB-44 xenograft; for Tumor Mass / % T/C (Treated/Control × 100): 25 mg/kg oral
Description: as §6, §7

[8] = Homo sapiens, read-out: CCI-779 IC50 (50% growth inhibitory concentration)
[9] = patients having soft tissue sarcoma, daily×5 dosage schedule
[10] = renal cancer patients, daily×5 schedule
[11] = patients having renal cancer, weekly schedule
[12] = 5 consecutive days, 14 day cycles, day 0
[13] = 25 mg/kg, versus vehicle control

SMILES: CO[C@H]1C[C@@H]2CC[C@@H](C)[C@@](O)(O2)C(=O)C(=O)N2CCCC[C@H]2C(=O)O[C@H]([C@H](C)C[C@@H]2CC[C@@H](OC(=O)C(C)(CO)CO)[C@H](OC)C2)CC(=O)[C@H](C)/C=C(\C)[C@@H](O)[C@@H](OC)C(=O)[C@H](C)C[C@H](C)/C=C/C=C/C=C/1C [CCI-779, rapamycin 42-ester with 3-hydroxy-2-(hydroxymethyl)-2-methylpropionic acid]
- CCI-779 IC50 (50% growth inhibitory concentration) [1]: low nM range
- IC50 [1, 8]: 2 nM
- CCI-779 IC50 (50% growth inhibitory concentration) [2]: low nM range
- IC50 ([2]; Homo sapiens, SN12C, read-out: CCI-779 IC50 (50% growth inhibitory concentration)): 5.5 nM
- CCI-779 IC50 (50% growth inhibitory concentration) [3]: low nM range
- IC50 [3, 8]: 5 nM
- number of minor responses ([4]; patients having cervical cancer, daily×5 dosage schedule): one
- number of partial responses ([4]; patients having non-small cell lung cancer, daily×5 dosage schedule): one
- number of minor responses [4, 9]: 2
- number of possible partial responses [4, 9]: 1
- number of stable disease [4, 9]: 1
- number of unconfirmed minor responses ([4]; patients having uterine cancer, daily×5 dosage schedule): one
- duration of stable disease [4, 10]: approximately 5 months
- number of minor responses [4, 10]: 1
- number of stable disease (<25% increase to <25% reduction in tumor size) [4, 10]: 1
- number of unconfirmed minor responses [4, 10]: 1
- number of minor responses (≧25% but<50% reduction in tumor size) [5, 11]: 2
- number of partial responses (≧50% reduction in tumor size) [5, 11]: 1
- number of partial responses ([5]; patients with breast cancer): one
- number of partial responses ([5]; patients with neuroendocrine tumor of the lung): one
- Tumor Mass [6, 12]: 272 ± 14 mg
- % T/C (Treated/Control × 100) ([6]; day 0): 100%
- % T/C (Treated/Control × 100) ([6]; day 7): 62%
- Tumor Mass ([6]; day 7): 219 ± 16 mg
- % T/C (Treated/Control × 100) ([6]; day 21): 60%
- Tumor Mass ([6]; day 21): 226 ± 17 mg
- % T/C (Treated/Control × 100) ([6]; day 35): 42%
- Tumor Mass ([6]; day 35): 200 ± 21 mg
- % T/C (Treated/Control × 100) ([6]; day 49): 42%
- Tumor Mass ([6]; day 49): 229 ± 28 mg
- % T/C (Treated/Control × 100) ([6]; day 55): 53%
- Tumor Mass ([6]; day 55): 268 ± 30 mg
- inhibition of tumor cell growth in the mice [6, 13]: significant inhibition of tumor cell growth
- Tumor Mass [7, 12]: 290 ± 15 mg
- % T/C (Treated/Control × 100) ([7]; day 0): 101%
- % T/C (Treated/Control × 100) ([7]; day 7): 71%
- Tumor Mass ([7]; day 7): 156 ± 13 mg
- % T/C (Treated/Control × 100) ([7]; day 21): 41%
- Tumor Mass ([7]; day 21): 252 ± 48 mg
- % T/C (Treated/Control × 100) ([7]; day 35): 41%
- Tumor Mass ([7]; day 35): 453 ± 85 mg
- % T/C (Treated/Control × 100) ([7]; day 49): 48%
- Tumor Mass ([7]; day 49): 980 ± 155 mg
- % T/C (Treated/Control × 100) ([7]; day 55): 44%
- Tumor Mass ([7]; day 55): 1050 ± 183 mg
- inhibition of tumor cell growth in the mice [7, 13]: significant inhibition of tumor cell growth

— patent US7781446B2, “Use of CCI-779 as an antineoplastic agent” (Wyeth LLC, priority 2000, dated 2010)
